According to patent US10202361B2, “Pyridazinones as herbicides” (E I DU PONT DE NEMOURS AND COMPANY, priority 2014, dated 2019):

What was measured:
Format in all cases: in vivo
Settings in all cases: scale 0 to 100
[1] = system: blackgrass (Alopecurus myosuroides); assay: Test D pre-/postemergence controlled growth environment herbicide test
Procedure, shortened: (§1)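 Preemergence: seeds sown in silt loam soil and sprayed with test chemicals in a non-phytotoxic solvent mixture containing surfactant. Postemergence: plants grown in peat/vermiculite planting medium and sprayed at 2 to 18 cm (1- to 4-leaf stage). Visual rating versus controls after 14 to 21 d, 0 (no effect) to 100 (complete control).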

[2] = system: chamomile (scentless chamomile, Matricaria inodora); assay: as above
Procedure, shortened: as §1

[3] = system: chickweed (common chickweed, Stellaria media); assay: as above
Procedure, shortened: as §1

[4] = system: foxtail, green (green foxtail, Setaria viridis); assay: as above
Procedure, shortened: as §1

[5] = system: radish, wild (wild radish, Raphanus raphanistrum); assay: as above
Procedure, shortened: as §1

[6] = system: smartweed (ladysthumb smartweed, Polygonum persicaria); assay: Test E pre-/postemergence greenhouse herbicide test
Procedure, shortened: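 Visual control ratings on a 0 to 100 scale (100 = complete control) were made 14 to 21 d after treatment, relative to untreated controls. Test chemicals, formulated with surfactant in a non-phytotoxic solvent, were applied to seeded silt loam soil (preemergence) and to 2 to 18 cm plants (postemergence).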

[7] = system: waterhemp_RES1 (ALS & Triazine resistant common waterhemp, Amaranthus rudis); assay: Test E postemergence greenhouse herbicide test
Experimental: (§2) At the same time, plants from these crop and weed species and also waterhemp_RES1, (ALS & Triazine resistant common waterhemp, Amaranthus rudis), and waterhemp_RES2, (ALS & HPPD resistant common waterhemp, Amaranthus rudis) were planted in pots containing Redi-Earth® planting medium (Scotts Company, 14111 Scottslawn Road, Marysville, Ohio 43041) comprising spaghnum peat moss, vermiculite, wetting agent and starter nutrients were treated with postemergence applications of test chemicals formulated in the same manner. Plants ranged in height from 2 to 18 cm for postemergence treatments (1- to 4-leaf stage). Treated plants and controls were maintained in a greenhouse for 14 to 21 d, after which time all species were compared to controls and visually evaluated. Plant response ratings, summarized in Table E, are based on a scale of 0 to 100 where 0 is no effect and 100 is complete control. A dash (-) response means no test result.

[8] = system: waterhemp_RES2 (ALS & HPPD resistant common waterhemp, Amaranthus rudis); assay: Test E postemergence greenhouse herbicide test
Experimental: as §2

SMILES: COc1cc(=O)n(-c2ccc(F)cc2)nc1Cc1ccnc(C(F)(F)F)c1 [Compound 17, 2-(4-fluorophenyl)-5-methoxy-6-[[2-(trifluoromethyl)-4-pyridinyl]methyl]-3 (2H)-pyridazinone]
- Plant response rating ([1]; Postemergence, 31 g ai/ha): 10
- Plant response rating ([1]; Postemergence, 62 g ai/ha): 10
- Plant response rating ([1]; Postemergence, 125 g ai/ha): 10
- Plant response rating ([1]; Postemergence, 250 g ai/ha): 20
- Plant response rating ([1]; Postemergence, 500 g ai/ha): 50
- Plant response rating ([1]; Preemergence, 31 g ai/ha): 0
- Plant response rating ([1]; Preemergence, 62 g ai/ha): 10
- Plant response rating ([1]; Preemergence, 125 g ai/ha): 30
- Plant response rating ([1]; Preemergence, 250 g ai/ha): 60
- Plant response rating ([1]; Preemergence, 500 g ai/ha): 90
- Plant response rating ([2]; Postemergence, 31 g ai/ha): 20
- Plant response rating ([2]; Postemergence, 62 g ai/ha): 40
- Plant response rating ([2]; Postemergence, 125 g ai/ha): 40
- Plant response rating ([2]; Postemergence, 250 g ai/ha): 60
- Plant response rating ([2]; Postemergence, 500 g ai/ha): 60
- Plant response rating ([2]; Preemergence, 31 g ai/ha): 0
- Plant response rating ([2]; Preemergence, 62 g ai/ha): 80
- Plant response rating ([2]; Preemergence, 125 g ai/ha): 95
- Plant response rating ([2]; Preemergence, 250 g ai/ha): 100
- Plant response rating ([2]; Preemergence, 500 g ai/ha): 100
- Plant response rating ([3]; Postemergence, 31 g ai/ha): 10
- Plant response rating ([3]; Postemergence, 62 g ai/ha): 40
- Plant response rating ([3]; Postemergence, 125 g ai/ha): 60
- Plant response rating ([3]; Postemergence, 250 g ai/ha): 100
- Plant response rating ([3]; Postemergence, 500 g ai/ha): 100
- Plant response rating ([3]; Preemergence, 31 g ai/ha): 100
- Plant response rating ([3]; Preemergence, 62 g ai/ha): 100
- Plant response rating ([3]; Preemergence, 125 g ai/ha): 100
- Plant response rating ([3]; Preemergence, 250 g ai/ha): 100
- Plant response rating ([3]; Preemergence, 500 g ai/ha): 100
- Plant response rating ([4]; Postemergence, 31 g ai/ha): 10
- Plant response rating ([4]; Postemergence, 62 g ai/ha): 10
- Plant response rating ([4]; Postemergence, 125 g ai/ha): 15
- Plant response rating ([4]; Postemergence, 250 g ai/ha): 30
- Plant response rating ([4]; Postemergence, 500 g ai/ha): 80
- Plant response rating ([4]; Preemergence, 31 g ai/ha): 15
- Plant response rating ([4]; Preemergence, 62 g ai/ha): 95
- Plant response rating ([4]; Preemergence, 125 g ai/ha): 100
- Plant response rating ([4]; Preemergence, 250 g ai/ha): 100
- Plant response rating ([4]; Preemergence, 500 g ai/ha): 100
- Plant response rating ([5]; Postemergence, 31 g ai/ha): 30
- Plant response rating ([5]; Postemergence, 62 g ai/ha): 35
- Plant response rating ([5]; Postemergence, 125 g ai/ha): 60
- Plant response rating ([5]; Postemergence, 250 g ai/ha): 100
- Plant response rating ([5]; Postemergence, 500 g ai/ha): 100
- Plant response rating ([5]; Preemergence, 31 g ai/ha): 30
- Plant response rating ([5]; Preemergence, 62 g ai/ha): 100
- Plant response rating ([5]; Preemergence, 125 g ai/ha): 100
- Plant response rating ([5]; Preemergence, 250 g ai/ha): 100
- Plant response rating ([5]; Preemergence, 500 g ai/ha): 100
- Plant response rating: Smartweed ([6]; Postemergence, 16 g ai/ha): 10
- Plant response rating: Smartweed ([6]; Postemergence, 31 g ai/ha): 15
- Plant response rating: Smartweed ([6]; Postemergence, 62 g ai/ha): 30
- Plant response rating: Smartweed ([6]; Postemergence, 125 g ai/ha): 40
- Plant response rating: Smartweed ([6]; Postemergence, 250 g ai/ha): 60
- Plant response rating: Smartweed ([6]; Preemergence, 16 g ai/ha): 0
- Plant response rating: Smartweed ([6]; Preemergence, 31 g ai/ha): 0
- Plant response rating: Smartweed ([6]; Preemergence, 62 g ai/ha): 0
- Plant response rating: Smartweed ([6]; Preemergence, 125 g ai/ha): 20
- Plant response rating: Smartweed ([6]; Preemergence, 250 g ai/ha): 75
- Plant response rating: Waterhemp_RES1 ([7]; 16 g ai/ha): 50
- Plant response rating: Waterhemp_RES1 ([7]; 31 g ai/ha): 60
- Plant response rating: Waterhemp_RES1 ([7]; 62 g ai/ha): 60
- Plant response rating: Waterhemp_RES1 ([7]; 125 g ai/ha): 85
- Plant response rating: Waterhemp_RES1 ([7]; 250 g ai/ha): 90
- Plant response rating: Waterhemp_RES2 ([8]; 16 g ai/ha): 60
- Plant response rating: Waterhemp_RES2 ([8]; 31 g ai/ha): 80
- Plant response rating: Waterhemp_RES2 ([8]; 62 g ai/ha): 80
- Plant response rating: Waterhemp_RES2 ([8]; 125 g ai/ha): 90
- Plant response rating: Waterhemp_RES2 ([8]; 250 g ai/ha): 95
